Molecular target: T1, bovine factor Xa (Bos taurus, UniProt P00743)
T1 construct: (bovine factor Xa); purchased Stago (Diagnostica Stago) STA®—Liquid Anti-Xa commercial kit (catalogue number not given)
Experiment: competitive enzymatic assay, enzyme-substrate reaction (universal methodology, STA-Liquid Anti-Xa kit)
Format: biochemical
Settings: bovine factor Xa [E]≈10 nM, substrate [S]≈482 μM, 37° C.
Procedure: In accordance with this particular embodiment, the in vitro measurement for the detection, the identification, and the quantification of synthetic inhibitors of factor Xa was carried out in accordance with the following principle: • 25 μL of a plasma sample suspected of containing a heparin or an anti-Xa DOAC was diluted in 25 μL of Owren Koller buffer (TOK), then placed in a consumable; • 150 μL of “Substrate” reagent (MAPA-Gly-Arg-pNA) (reagent in the STA®—Liquid Anti-Xa commercial kit) specific for factor Xa was added to the reaction mixture; • an incubation step of 240 seconds raised the reaction mixture to 37° C.; • 150 μL of the reagent “F. Xa” (bovine factor Xa) (reagent in the STA®—Liquid Anti-Xa commercial kit) was added to the reaction mixture, thereby initiating competition between the inhibition reaction and the enzymatic reaction; • the measurement per se was then carried out over 156 seconds: factor Xa transforms the substrate into product while at the same time being inhibited by the heparin or the DOAC if they are present in the sample. […]

T1 sequence (P00743 234-492 limits assumed): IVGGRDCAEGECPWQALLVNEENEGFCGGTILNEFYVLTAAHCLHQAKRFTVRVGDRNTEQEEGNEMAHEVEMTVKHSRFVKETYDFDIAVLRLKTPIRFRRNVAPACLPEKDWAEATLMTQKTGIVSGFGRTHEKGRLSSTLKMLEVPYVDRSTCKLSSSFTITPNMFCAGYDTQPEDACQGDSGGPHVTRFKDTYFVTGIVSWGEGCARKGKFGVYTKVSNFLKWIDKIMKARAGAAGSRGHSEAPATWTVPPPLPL
T1 sequence (P00743 41-180 limits assumed): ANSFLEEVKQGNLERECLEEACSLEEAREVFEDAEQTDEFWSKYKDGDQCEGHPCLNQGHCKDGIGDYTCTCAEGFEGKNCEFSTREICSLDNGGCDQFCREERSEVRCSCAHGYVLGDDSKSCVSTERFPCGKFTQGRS

Michaelis constant KM associated with the enzyme-substrate reaction: ~500 µM
catalytic constant kcat associated with the enzyme-substrate reaction: approximately 400 s-1
Substance: MAPA-Gly-Arg-pNA

Reference: patent US12473584B2, “Method for detecting the presence, identification and quantification in a blood sample of anticoagulants which are blood coagulation enzymes inhibitors, and means for the implementation thereof” (DIAGNOSTICA STAGO, priority 2018, dated 2025)
